The values that follow come from patent US7198931B2, “Phosphorylated glyoxalase I and its use” (Vlaams Interuniversitair Instituut voor Biotechnologie VZW, priority 2001, dated 2007).

Holding throughout (type): cell-based
In one assay the test system is L929 cells. The protocol: Murine TNF (mTNF) was obtained from Roche Diagnostics and was used at 1000 IU/ml unless indicated otherwise. Propidium iodide (PI) and cycloheximide (CHX) (all from Sigma) were used at concentrations of 30 μM and 50 μg/ml, respectively.
Cell death in L929 was induced by addition of TNF to the cell suspension. Cell death was measured by quantifying PI-positive cells by FACS (FACSCalibur, Becton Dickinson, San Jose, Calif.). The PI dye was excited with an argon-ion laser at 488 nm; PI fluorescence was measured above 590 nm using a long-pass filter. Routinely, 3,000 cells were analyzed. Cell death is expressed as the percentage of PI-positive cells in the total cell population.

For the next assay, the system named is specific MG-derived AGE. In words: Detection of the specific MG-derived AGE by Western blot with mAb6B, densitometry of the ECL signal. (In general: Immunoblotting shows a protein as a band on a membrane.)
A further assay concerns the target T1, glyoxalase I (Mus musculus, UniProt Q9CPU0).
T1 construct: TNF-induced phosphorylation of endogeneous glyoxalase I in L929 cells; endogenous in cells; host or cells: L929 cells
T1 sequence (Q9CPU0 2-184 limits assumed): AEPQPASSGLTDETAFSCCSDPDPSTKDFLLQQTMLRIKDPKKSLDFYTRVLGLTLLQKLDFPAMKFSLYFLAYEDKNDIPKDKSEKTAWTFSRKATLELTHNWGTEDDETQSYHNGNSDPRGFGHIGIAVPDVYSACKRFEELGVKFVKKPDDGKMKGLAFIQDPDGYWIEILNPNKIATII
In words: TNF-induced phosphorylation of glyoxalase I (32P labeling, 2-D gels, Western blot with anti-human glyoxalase I antibody). The protocol: L929 cells were plated 48 hours prior to the experiment. ^32P labeling was carried out as described in (Guy et al., 1992). TNF treatments (1000 IU/ml, 1.5 hours) were done in the presence of cycloheximide (CHX), to synchronize cell death. To simplify the 2-D phosphoprotein pattern and subsequent computer-assisted analysis, we prepared two subcellular protein fractions. The cytosolic protein fraction, containing soluble cytoplasmic molecules and molecules derived from single-membrane organelles, was obtained as the supernatant from digitonin (0.03%)-permeabilized cells. After rinsing once with excess PBS buffer, the remaining cell fraction was lysed in a CHAPS (2%)-containing buffer as described in (Guy et al., 1992). This lysate was then centrifuged (20,000 g) and the supernatant was used as the organelle fraction; it is enriched for mitochondrial and cytoskeleton-derived proteins.
Isoelectric focusing. […] Protein samples were precipitated with ethanol and redissolved in lysis buffer.
SDS-PAGE. The second dimension (SDS-PAGE) was run on large vertical gels (12.5% acrylamide, Biorad).
Proteins were separated by SDS-PAGE (12.5%) and transferred to a PVDF membrane (Hybond-P, Amersham Pharmacia Biotech). […]

Setting [1] is: L929 cells pretreated (BBGD 20 μM; H89 5 μM), after 1.5 hours of TNF treatment.
Setting [2] is: L929 cells pretreated (BBGD 20 μM; H89 5 μM), after 2.5 hours of TNF treatment.

Where two headings read alike, the source gives them in different places.

Procedure for specific MG-derived AGE: L929 cells were seeded 48 hours prior to the experiment. TNF incubations (1000 U/ml) were done in the presence of CHX to synchronize cell death. After TNF incubations (1.5 hours or 2.5 hours), the cells were rinsed three times with ice-cold PBS buffer and cell lysates were prepared in a CHAPS-containing cytosol extraction buffer (Guy et al., 1992). […] To use the antibody sparingly, SDS-PAGE gels were only run over a distance of 5 cm.

With `CC(=O)C=O` [MG, methylglyoxal], in the assay on L929 cells (5.5 hours incubation with TNF and methylglyoxal, concentration-dependent), the “effect of exogeneously added MG on TNF-induced cell death” value is “strongly synergistic”.
For the compound `N=C(N)NN` [aminoguanidine], the “inhibition of TNF-induced cell death” value in the assay on L929 cells (16 hours TNF 20 U/ml, 400 μM) is given as 15%. In addition, the “maximum inhibition of TNF-induced cell death” value in the assay on L929 cells (16 hours TNF 20 U/ml, 600 or 800 μM) came to 25%.
Regarding `NC(CCC(=O)NC(CSCc1ccc(Br)cc1)C(=O)NCC(=O)OC1CCCC1)C(=O)OC1CCCC1` (stereo not shown) [BBGD, s-p-bromobenzylglutathione cyclopentyl diester], the “increase in TNF-induced cell death (synergistic effect)” value in the assay with L929 cells (inhibitor and TNF added at the same time, 20 μM) is given as 50%. For the same compound, the “inhibition of TNF-induced cell death” value with L929 cells (preincubation 1 hour 10 minutes with inhibitor, 20 μM) turned out to be 60%. Also, the entries for the “reduction of formation of the specific MG-derived AGE” value (“reduction” for short) with specific MG-derived AGE (setting [1]) and with specific MG-derived AGE (setting [2]) were 50% and 10%, respectively. The “effect on TNF-induced phosphorylation of GLO1” value at glyoxalase I (cells preincubated with the inhibitor for 1 hour 10 minutes, 2-D gels pH 3–10) is given as “inhibits the TNF-induced phosphorylation of GLO1”.
As to `O=S(=O)(NCCNC/C=C/c1ccc(Br)cc1)c1cccc2cnccc12` [H89], the “effect on TNF-induced cell death” value in the assay on L929 cells (pretreatment 2 hours, 1 μM) is recorded as “inhibitory effect”. Besides, the “inhibition of TNF-induced cell death” value in the assay on L929 cells (pretreatment 2 hours, 5 μM) is above 50%. Moreover, the “reduction” value with specific MG-derived AGE (setting [1]) amounted to 70%; with specific MG-derived AGE (setting [2]) it was 20%. In addition, the “effect on induction of the more acidic (phosphorylated) isoform of glyoxalase I by TNF” value at glyoxalase I (L929 cells, pretreatment, 5 μM) is on record as “completely abolished”.
For the compound `COc1ccc(O)c(C(C)(C)C)c1` [BHA, butylated hydroxyanisole], the “reduction” value in the assay with specific MG-derived AGE (TNF 1000 U/ml + CHX, 2.5 hours, BHA 100 μM given 0.5 hour after TNF) is given as 65%.
Turning to `O=CC[C@@H](O)[C@H](O)[C@H](O)CO` [2-deoxyglucose], in the assay with L929 cells (2-deoxyglucose 2:1 ratio to glucose), the “inhibition of TNF-induced cell death” value was determined as 65%. In the assay with specific MG-derived AGE (TNF 1000 U/ml + CHX, 2.5 hours, 2-deoxyglucose 2:1 ratio to glucose, given with TNF), the “inhibition of formation of the specific MG-derived AGE” value was determined as 65%.
